Laboratory results published in patent US20220251504A1, “FUNCTIONAL ASTROCYTES DERIVED FROM PLURIPOTENT STEM CELLS AND METHODS OF MAKING AND USING THE SAME” (New York Stem Cell Foundation, Inc., priority 2019, published 2022).

Legend:
Format in all cases: cell-based, human
[1] = tested on: OLIG2-GFP knock-in hESC reporter line; experiment: OLIG2-GFP expression by flow cytometry during differentiation of hESC reporter line; conditions: RA 100 nM from beginning of induction, SHH 100 ng/ml from day 8, or SAG replacing SHH, added to RA
Description: RA at a concentration of 100 nM from day 0 results in the highest yield of GFP^+ cells. […] Negative: human embryonic stem cell (hESC) line RUES1. […] Error bars are SEM (N=3). […] Only GFP^+ cells form spheres, providing enrichment to the GFP^+ population.
An OLIG2-GFP knock-in hESC reporter line was used to track OLIG2^+ progenitors by live fluorescent imaging. First, PAX6^+ cells were induced using dual inhibition of SMAD signaling in adherent cultures. Next, to mimic the embryonic spinal cord environment, different concentrations of RA and/or SHH were applied at various times and quantified OLIG2-GFP expression through flow cytometry (FIG. 2A).
At day 12, cells were detached and placed into low-attachment plates to promote their aggregation into spheres. The minimum number of cells required to form a sphere was at least 100 cells, and we noted that the majority of cells in the spheres were GFP^+. […]
(§1) Cells were enzymatically harvested by Accutase™ treatment for 25 minutes at 37° C. to obtain a single cell suspension. Cells were then re-suspended in 100 μl of their respective medium containing the appropriate amount of either primary antibody or fluorescence-conjugated antibodies and were incubated on ice for 30 minutes shielded from light. […] Flow cytometry data were analyzed using BD FACSDiva™ software.

O4^+ cells = experiment: FACS analysis for O4+ cells at day 75 of differentiation; conditions: RA only vs RA and SAG in the first 12 days of differentiation
Description: Endogenous SHH levels are higher in the samples that were not exposed to SHH/SAG. Error bars are SEM (N=3). […] Negative Control: APC-conjugated secondary antibody only. […] A substantial population of GFP^+ cells is present only under the dual inhibition of SMAD proteins, indicating a synergistic effect between RA and the dual inhibition of SMAD. DSi: Dual SMAD inhibition; SB: SB431542; LDN: […].
Spheres were plated on pO/L plates, as described above, in PDGF Medium at day 30, changing 2/3 of the PDGF Medium every other day until day 75 of differentiation. The appearance of O4^+ cells was assessed by live O4 staining from day 55 onwards (FIG. 6). At day 75, O4+ OPCs could be isolated by FACS (FIG. 7I). Alternatively, for terminal oligodendrocyte differentiation (FIG. 7G, 7H), cells were cultured in Glial Medium from day 75, changing 2/3 of the medium every 3 days for two weeks.
as §1

CD49f^+ astrocytes = experiment: Intracellular Ca2+ imaging of hiPSC-astrocytes after ATP application; conditions: 100 μM ATP, 60s application
Text: See also FIG. 32. […] Bar graphs show the maximum number of evoked spikes per 1 second stimulus (n=8/18), the maximum firing frequency in hertz (Hz) (n=5/15), the amplitude adaptation ratio between first and last action potential (n=5/15), the maximum action potential height (mV) (n=8/17), and the frequency of spontaneous excitatory post-synaptic currents (Hz) (n=5/9) in hiPSC-neurons at day 50 when cultured alone vs. with astrocytes during days 33-50. Dots correspond to 3 different lines. Each dot represents an independent cell. n=neurons alone/neurons co-cultured with astrocytes. Error bars show mean±standard deviation. p-values were calculated using a two-tailed, unpaired t-test. […] Scale bar, 50 μm. […] Error bars show mean±standard deviation (n=3 technical replicates). p-values were calculated using a two-tailed, unpaired t-test. […] Error bars show mean±standard deviation (n=4 technical replicates). p-values were calculated using a one-way ANOVA with Dunnett's correction for multiple comparisons. […] Error bars show mean±standard deviation. p-values were calculated using a one-way ANOVA with Dunnett's correction for multiple comparisons.
CD49f^+ astrocytes from three iPSC lines were cultured on glass coverslips coated with 0.1 mg/ml poly-L-ornithine followed by 10 μg/ml laminin. […] Fluorescence was recorded at 2 Hz by a cooled CCD camera (Hamamatsu™ Orca R^2). […]

Row | Structure (SMILES) | OLIG2^+ progenitors [1] [%] | decrease in the O4^+ population in cells not provided with SAG (O4^+ cells) [%] | [Ca^2+]i response to extracellular ATP (CD49f^+ astrocytes)
1 | CC1=C(/C=C/C(C)=C/C=C/C(C)=C/C(=O)O)C(C)(C)CCC1 [RA, all trans retinoic acid] | 40.6 | – | –
2 | CNC1CCC(N(Cc2cccc(-c3ccncc3)c2)C(=O)c2sc3ccccc3c2Cl)CC1 (stereo not shown) [SAG] | 70.1 | 56 | –
3 | Nc1ncnc2c1ncn2[C@@H]1O[C@H](COP(=O)(O)OP(=O)(O)OP(=O)(O)O)[C@@H](O)[C@H]1O [ATP] | – | – | robustly responded
